Each block holds one compound with its values, some of them ahead of it.
Experiments:
Pyruvate kinase PKM [1] = target: T1, Pyruvate kinase PKM (Homo sapiens, UniProt P14618); assay: Activation of PKM2 (unknown origin) assessed as PEP conversion to pyruvate measured as concentration required for 50% activation by luminescence assay
Target sequence in this assay (P14618 whole entry): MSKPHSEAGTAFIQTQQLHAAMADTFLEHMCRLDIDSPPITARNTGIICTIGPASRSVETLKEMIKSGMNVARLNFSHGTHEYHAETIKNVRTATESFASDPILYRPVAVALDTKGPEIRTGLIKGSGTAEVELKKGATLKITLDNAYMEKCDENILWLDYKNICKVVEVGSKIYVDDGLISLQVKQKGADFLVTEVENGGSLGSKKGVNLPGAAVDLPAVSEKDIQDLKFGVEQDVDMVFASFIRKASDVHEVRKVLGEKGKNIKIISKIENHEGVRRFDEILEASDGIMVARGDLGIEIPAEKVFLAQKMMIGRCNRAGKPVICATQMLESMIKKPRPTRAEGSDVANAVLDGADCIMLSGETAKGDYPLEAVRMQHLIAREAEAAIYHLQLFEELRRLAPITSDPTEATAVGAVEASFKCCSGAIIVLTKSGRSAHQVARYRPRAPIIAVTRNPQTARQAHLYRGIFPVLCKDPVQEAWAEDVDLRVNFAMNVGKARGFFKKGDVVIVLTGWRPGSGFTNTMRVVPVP

Pyruvate kinase PKM [2] = target: T1, Pyruvate kinase PKM; assay: Activation of PKM2 in human A549 cells; format: cell-based
Target sequence in this assay (P14618 2-531 limits assumed): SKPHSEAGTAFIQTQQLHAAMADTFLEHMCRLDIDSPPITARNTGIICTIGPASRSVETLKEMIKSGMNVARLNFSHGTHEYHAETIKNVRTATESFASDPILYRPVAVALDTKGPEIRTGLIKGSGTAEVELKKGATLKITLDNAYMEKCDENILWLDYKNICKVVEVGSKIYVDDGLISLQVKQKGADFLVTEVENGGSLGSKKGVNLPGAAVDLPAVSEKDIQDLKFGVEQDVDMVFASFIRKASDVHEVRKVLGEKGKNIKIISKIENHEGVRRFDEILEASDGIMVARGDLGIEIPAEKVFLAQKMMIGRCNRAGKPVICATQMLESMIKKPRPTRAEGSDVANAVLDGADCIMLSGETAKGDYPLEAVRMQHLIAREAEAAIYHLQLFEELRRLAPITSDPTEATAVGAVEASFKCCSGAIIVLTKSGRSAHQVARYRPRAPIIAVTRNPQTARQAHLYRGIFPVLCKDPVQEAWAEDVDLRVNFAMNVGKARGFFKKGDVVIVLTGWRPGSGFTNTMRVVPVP

Pyruvate kinase PKM [3] = target: T1, Pyruvate kinase PKM; assay: Activation of PKM2 in human NCI-H1299 cells; format: cell-based
Target sequence in this assay (P14618 2-531 limits assumed): as above

Compound: O=C(c1cc(Cl)n[nH]1)N(Cc1cccc2[nH]ccc12)CC1CCC1
AC50 (Pyruvate kinase PKM [1]; read-out: AC50): 0.757 µM
Activity (Pyruvate kinase PKM [2]): 6.73 µM

Compound: N#Cc1ccc(CN(CC2CCC2)C(=O)c2cc(Br)c[nH]2)cc1
AC50 (Pyruvate kinase PKM [1]): Not Active

Compound: O=C(c1cc(Br)c[nH]1)N(Cc1ccc(Cl)cc1)CC1CCC1
AC50 (Pyruvate kinase PKM [1]): Not Active

Compound: Nc1cc(C(=O)N(Cc2ccc(O)cc2F)CC2CCC2)[nH]n1
AC50 (Pyruvate kinase PKM [1]; read-out: AC50): > 30 µM

Compound: O=C(c1cc(Br)c[nH]1)N(Cc1ccc(O)cc1F)CC1CCC1
AC50 (Pyruvate kinase PKM [1]; read-out: AC50): 0.75 µM

Compound: O=C(c1cc(Br)n[nH]1)N(Cc1cccc2[nH]c(=O)sc12)CC1CCC1
AC50 (Pyruvate kinase PKM [1]; read-out: AC50): 3.05 µM
Activity (Pyruvate kinase PKM [2]): 12.9 µM
Activity (Pyruvate kinase PKM [3]): 16.6 µM

Compound: N#Cc1cc(C(=O)N(Cc2ccc(O)cc2F)CC2CCC2)[nH]n1
AC50 (Pyruvate kinase PKM [1]; read-out: AC50): 4.47 µM

Compound: O=C(c1cc(Br)n[nH]1)N(Cc1cccc2[nH]cnc12)CC1CCC1
Activity (Pyruvate kinase PKM [2]): 1.99 µM
Activity (Pyruvate kinase PKM [3]): 1.42 µM

Compound: O=C(c1cc(Cl)n[nH]1)N(Cc1ccc(O)cc1F)CC1CCC1
Activity (Pyruvate kinase PKM [2]): 0.45 µM
Activity (Pyruvate kinase PKM [3]): 0.3 µM

Compound: O=C(c1cc(Cl)n[nH]1)N(Cc1cccc2[nH]ncc12)CC1CCC1
AC50 (Pyruvate kinase PKM [1]; read-out: AC50): 2.93 µM
Activity (Pyruvate kinase PKM [2]): 5.94 µM
Activity (Pyruvate kinase PKM [3]): 6.4 µM

Compound: O=C(c1cc(Br)n[nH]1)N(Cc1cccc2[nH]ncc12)CC1CCC1
AC50 (Pyruvate kinase PKM [1]; read-out: AC50): 3.13 µM

Compound: O=C(c1cc(C(F)(F)F)n[nH]1)N(Cc1ccc(O)cc1F)CC1CCC1
Activity (Pyruvate kinase PKM [2]): 0.26 µM
Activity (Pyruvate kinase PKM [3]): 0.22 µM

Compound: O=C(c1cc(C(F)(F)F)n[nH]1)N(Cc1cccc2[nH]ccc12)CC1CCC1
Activity (Pyruvate kinase PKM [2]): 0.308 µM
Activity (Pyruvate kinase PKM [3]): 0.364 µM

Compound: O=C(c1cc(Br)n[nH]1)N(Cc1ccc(O)cc1F)CC1CCC1
AC50 (Pyruvate kinase PKM [1]; read-out: AC50): 0.034 µM
Activity (Pyruvate kinase PKM [2]): 0.06 µM
Activity (Pyruvate kinase PKM [3]): 0.055 µM

Other lines, results leading:

AC50 (Pyruvate kinase PKM [1]; read-out: AC50): 6.33 µM
Compound: CCCCN(Cc1ccccc1)C(=O)c1cc(Br)c[nH]1

AC50 (Pyruvate kinase PKM [1]; read-out: AC50): 36 µM
Compound: O=C(NCc1ccccc1)c1cc(Br)c[nH]1

AC50 (Pyruvate kinase PKM [1]): Not Active
Compound: COc1ccc(CN(CC2CCC2)C(=O)c2cc(Br)c[nH]2)cc1

AC50 (Pyruvate kinase PKM [1]; read-out: AC50): 3.03 µM
Compound: O=C(c1cc(Br)c[nH]1)N(Cc1cccc(O)c1)CC1CCC1

AC50 (Pyruvate kinase PKM [1]): Not Active
Compound: Nc1ccc(CN(CC2CCC2)C(=O)c2cc(Br)c[nH]2)cc1

AC50 (Pyruvate kinase PKM [1]; read-out: AC50): 3.85 µM
Compound: O=C(c1cc(Br)c[nH]1)N(Cc1cccc(F)c1)CC1CCC1

AC50 (Pyruvate kinase PKM [1]; read-out: AC50): 12.2 µM
Compound: O=C(c1cc(Br)c[nH]1)N(Cc1ccccc1)CC1CC1

AC50 (Pyruvate kinase PKM [1]): Not Active
Compound: O=C(c1cc(Br)c[nH]1)N(Cc1ccccc1)CC1CCCC1

AC50 (Pyruvate kinase PKM [1]; read-out: AC50): 1.29 µM
Compound: O=C(c1cc(Br)c[nH]1)N(Cc1ccccc1O)CC1CCC1

AC50 (Pyruvate kinase PKM [1]; read-out: AC50): 3.9 µM
Compound: O=C(c1cc(Br)c[nH]1)N(Cc1ccccc1F)CC1CCC1

AC50 (Pyruvate kinase PKM [1]; read-out: AC50): 2.3 µM
Compound: O=C(c1cc(Br)c[nH]1)N(Cc1ccccc1)CC1CCC1

AC50 (Pyruvate kinase PKM [1]; read-out: AC50): 1.71 µM
Compound: O=C(c1cc(Br)c[nH]1)N(Cc1ccc(O)cc1)CC1CCC1

AC50 (Pyruvate kinase PKM [1]): Not Active
Compound: CCN(Cc1ccccc1)C(=O)c1cc(Br)c[nH]1

AC50 (Pyruvate kinase PKM [1]; read-out: AC50): 4.45 µM
Compound: CCCCCN(Cc1ccccc1)C(=O)c1cc(Br)c[nH]1

AC50 (Pyruvate kinase PKM [1]; read-out: AC50): 12.1 µM
Compound: O=C(c1cc(Br)c[nH]1)N(Cc1ccc(F)cc1)CC1CCC1

AC50 (Pyruvate kinase PKM [1]): Not Active
Compound: O=C(c1cc(Br)c[nH]1)N(Cc1ccccc1)CC1CCCCC1

AC50 (Pyruvate kinase PKM [1]; read-out: AC50): 6 µM
Compound: CCCN(Cc1ccccc1)C(=O)c1cc(Br)c[nH]1
